Tested on: 636577-100-R-J1-PDC complex spheroid viability
Assay: Anticancer human tumor 636577-100-R-J1-PDC patient-derived endometrial adenocarcinoma cell line growth inhibition [GQUAD]
Conditions: for IC50: curve of first compound; for viability, T/C: stronger effect = lower value; active = viability on the fitted dose curve at most 10% of control; inactive = the rest
Text: DNA G-quadruplex Stabilizer Agents in Combinations in Complex Spheroids
A high-throughput screen of multi-cell type tumor spheroids was designed to identify active combinations of DNA G-quadruplex stabilizer agents and targeted small molecules. Complex spheroids include a stromal component modeled by human endothelial cells (HUVEC) and fibroblasts modeled by human mesenchymal stem cells (MSCs). The concentration ranges selected for each drug and investigational agent were based upon clinically achievable concentrations if the clinical Cmax of the agent was known.
Compounds. The drugs and investigational agents: pidnarulex (CX-5461; NSC782164), APTO-253 (NSC789042), BRACO-19 (NSC847499), peposertib (NSC802822), ceralasertib (NSC780249), elimusertib (NSC800525), camonsertib (NSC841442), AZD-1390 (NSC803789), olaparib (NSC753686), talazoparib (NSC767125), ART-558 (NSC835418), sotorasib (NSC818433), MRTX-1133 (NSC836407), SN-38 (NSC673596), topotecan (NSC609699), etoposide (NSC141540), doxorubicin (NSC123127), gemcitabine (NSC613327), 5-fluorouracil (NSC19893), paclitaxel (NSC125973), vemurafenib (NSC761431), panobinostat (NSC761190), R-306465 (JNJ-16241199; NSC773264), adavosertib (NSC754352), TP-3654 (NSC805149), carboplatin (NSC241240), KSQ-4279 (NSC840948), and staurosporine (NSC755774) were obtained from the National Cancer Institute (NCI) Developmental Therapeutics Program Chemical Repository (34). The FDA-approved anticancer drug set is available from the NCI Developmental Therapeutics Program. […] The stock solutions were prepared in dimethyl sulfoxide (DMSO, Sigma-Aldrich, St. Louis, MO, cat. D2650) at 800-fold the tested concentration and stored at -70 degrees C prior to their use. All drugs and investigational agents were tested over a range starting from a high concentration at or near the clinical Cmax and decreasing in half-log increments. If the clinical Cmax for an agent had not been determined, the highest concentration tested was 10 microM.
2.3 Cell Culture. All cells were maintained in an incubator at 37 degrees C and 5% CO2 with 95% humidity. The PDC lines were cultured according to standard operating procedures established by the NCI PDMR. All PDCs were thawed and cultured in Matrigel-coated flasks prepared with a working solution of 1X Ham's F-12 nutrient mix, without supplementation (Invitrogen, cat. 11765054), 100 U/mL penicillin-streptomycin (Invitrogen, cat. 15140122), and 2.5% Matrigel (Corning Inc., cat. 354248) for the first three passages. The 857933-349-R-J2-PDC line was cultured in 6C/Colon 1B media, which includes advanced DMEM/F-12 (Thermo Fisher Scientific, cat. 12634028), 10 mM HEPES (Thermo Fisher Scientific, cat. 15630080), 1X GlutaMAX supplement (Thermo Fisher Scientific, cat. 35050061), 0.1 mg/mL primocin (InvivoGen, cat. ant-pm-2), 10% defined fetal bovine serum, heat inactivated (HyClone Laboratories Inc., cat. SH30070.03HI), 50% L-WRN conditioned media (ATCC, cat. CRL-3276), 1.25 mM N-Acetyl-L-cysteine (Sigma-Aldrich, cat. A9165), 10 mM nicotinamide (Sigma-Aldrich, cat. N0636), 1X B-27 supplement (Thermo Fisher Scientific, cat. 17504044), 1X N-2 supplement (Thermo Fisher Scientific, cat. 17502048), 10 microM Y-27632 dihydrochloride (Tocris Bioscience, cat. 1254), and 50 ng/mL human EGF recombinant protein (Thermo Fisher Scientific, cat. PHG0311). The 485176-168-R4-J1-PDC line was cultured in Panc media, which includes all 6C/Colon 1B media components plus 100 ng/mL human FGF-10 (Thermo Fisher Scientific, cat. 100-26), 500 nM SB-431542 (Selleckchem, cat. S1067), and gastrin (Tocris, cat. 3006).
[…]

[1] = second compound 0.0316 µM, first compound 0.0316 µM
[2] = second compound 0.0316 µM, first compound 0.316 µM
[3] = second compound 0.1 µM, first compound 0.0316 µM
[4] = second compound 0.1 µM, first compound 0.316 µM
[5] = second compound 0.316 µM, first compound 0.0316 µM
[6] = second compound 0.316 µM, first compound 0.316 µM
[7] = second compound 1 µM, first compound 0.0316 µM
[8] = second compound 1 µM, first compound 0.316 µM
[9] = second compound 3.16 µM, first compound 0.0316 µM
[10] = second compound 3.16 µM, first compound 0.316 µM
[11] = second compound 10 µM, first compound 0.0316 µM
[12] = second compound 10 µM, first compound 0.316 µM
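Also: viability read after seven days of drug exposure.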
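For viability, T/C in this document: luminescence signal used as a proxy for viable cells; 100% = DMSO vehicle control wells.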

Cc1cccc(N(C)C(=O)C2C(O)CCN2c2nc(C)cc(C(F)(F)F)c2C#N)c1 (centres undefined) + CN(C)c1ccc(Nc2c3ccc(NC(=O)CCN4CCCC4)cc3nc3cc(NC(=O)CCN4CCCC4)ccc23)cc1
< 31.6 nM: IC50 (second compound 3.16 µM) | IC50 (second compound 10 µM)
> 10000 nM: IC50 (second compound 0.0316 µM) | IC50 (second compound 0.1 µM) | IC50 (second compound 0.316 µM) | IC50 (second compound 1 µM)
active: viability, T/C [11] 7.75% | viability, T/C (second compound 10 µM, first compound 0.1 µM) 6.99% | viability, T/C [12] 4.7% | viability, T/C (second compound 10 µM, first compound 1 µM) 4.67% | viability, T/C (second compound 10 µM, first compound 3.16 µM) 2.93% | viability, T/C (second compound 10 µM, first compound 10 µM) 0.73%
inactive: viability, T/C [1] 78% | viability, T/C (second compound 0.0316 µM, first compound 0.1 µM) 78.9% | viability, T/C [2] 97.2% | viability, T/C (second compound 0.0316 µM, first compound 1 µM) 102% | viability, T/C (second compound 0.0316 µM, first compound 3.16 µM) 92.1% | viability, T/C (second compound 0.0316 µM, first compound 10 µM) 86% | viability, T/C [3] 105% | viability, T/C (second compound 0.1 µM, first compound 0.1 µM) 73.6% | viability, T/C [4] 89.7% | viability, T/C (second compound 0.1 µM, first compound 1 µM) 92.8% | viability, T/C (second compound 0.1 µM, first compound 3.16 µM) 92.8% | viability, T/C (second compound 0.1 µM, first compound 10 µM) 82.9% | viability, T/C [5] 80.6% | viability, T/C (second compound 0.316 µM, first compound 0.1 µM) 79.7% | viability, T/C [6] 91.3% | viability, T/C (second compound 0.316 µM, first compound 1 µM) 88.5% | viability, T/C (second compound 0.316 µM, first compound 3.16 µM) 96.9% | viability, T/C (second compound 0.316 µM, first compound 10 µM) 78.3% | viability, T/C [7] 78.1% | viability, T/C (second compound 1 µM, first compound 0.1 µM) 87.2% | viability, T/C [8] 78.6% | viability, T/C (second compound 1 µM, first compound 1 µM) 71.5% | viability, T/C (second compound 1 µM, first compound 3.16 µM) 76.4% | viability, T/C (second compound 1 µM, first compound 10 µM) 57.4% | viability, T/C [9] 34.9% | viability, T/C (second compound 3.16 µM, first compound 0.1 µM) 47.4% | viability, T/C [10] 45.8% | viability, T/C (second compound 3.16 µM, first compound 1 µM) 31.6% | viability, T/C (second compound 3.16 µM, first compound 3.16 µM) 30.1% | viability, T/C (second compound 3.16 µM, first compound 10 µM) 27.2%

Cn1ncnc1[C@H]1c2n[nH]c(=O)c3cc(F)cc(c23)N[C@@H]1c1ccc(F)cc1 + CN(C)c1ccc(Nc2c3ccc(NC(=O)CCN4CCCC4)cc3nc3cc(NC(=O)CCN4CCCC4)ccc23)cc1
< 0.999 nM: IC50 (second compound 3.16 µM) | IC50 (second compound 10 µM)
active: viability, T/C (second compound 10 µM, first compound 0.000999 µM) 7.06% | viability, T/C (second compound 10 µM, first compound 0.00316 µM) 7.39% | viability, T/C (second compound 10 µM, first compound 0.00999 µM) 6.25% | viability, T/C [11] 5.78% | viability, T/C (second compound 10 µM, first compound 0.0999 µM) 5.88% | viability, T/C [12] 4.9%
inactive: viability, T/C (second compound 0.0316 µM, first compound 0.000999 µM) 95.1% | viability, T/C (second compound 0.0316 µM, first compound 0.00316 µM) 78.8% | viability, T/C (second compound 0.0316 µM, first compound 0.00999 µM) 84.6% | viability, T/C [1] 50.4% | viability, T/C (second compound 0.0316 µM, first compound 0.0999 µM) 42.2% | viability, T/C [2] 29% | viability, T/C (second compound 0.1 µM, first compound 0.000999 µM) 102% | viability, T/C (second compound 0.1 µM, first compound 0.00316 µM) 73% | viability, T/C (second compound 0.1 µM, first compound 0.00999 µM) 56.1% | viability, T/C [3] 51.4% | viability, T/C (second compound 0.1 µM, first compound 0.0999 µM) 46.7% | viability, T/C [4] 23% | viability, T/C (second compound 0.316 µM, first compound 0.000999 µM) 81.9% | viability, T/C (second compound 0.316 µM, first compound 0.00316 µM) 63.7% | viability, T/C (second compound 0.316 µM, first compound 0.00999 µM) 59.3% | viability, T/C [5] 49.7% | viability, T/C (second compound 0.316 µM, first compound 0.0999 µM) 48.6% | viability, T/C [6] 37.8% | viability, T/C (second compound 1 µM, first compound 0.000999 µM) 63.2% | viability, T/C (second compound 1 µM, first compound 0.00316 µM) 63.6% | viability, T/C (second compound 1 µM, first compound 0.00999 µM) 61.2% | viability, T/C [7] 52.1% | viability, T/C (second compound 1 µM, first compound 0.0999 µM) 40.2% | viability, T/C [8] 38.2% | viability, T/C (second compound 3.16 µM, first compound 0.000999 µM) 42.7% | viability, T/C (second compound 3.16 µM, first compound 0.00316 µM) 41.5% | viability, T/C (second compound 3.16 µM, first compound 0.00999 µM) 33.8% | viability, T/C [9] 31.4% | viability, T/C (second compound 3.16 µM, first compound 0.0999 µM) 25.1% | viability, T/C [10] 24.9%
42.7 nM: IC50 (second compound 0.0316 µM)
24.6 nM: IC50 (second compound 0.1 µM)
34.6 nM: IC50 (second compound 0.316 µM)
45 nM: IC50 (second compound 1 µM)
